Reference: patent publication US20220125746A1, “METHOD OF PREVENTING OR TREATING TREATMENT-INDUCED GASTROINTESTINAL INJURY” (priority 2019, published 2022)
Counter-ions that a name gives are not always drawn.

How the values were obtained:
[1] = test system: colon cancer cell line DLD1; experiment: PUMA-induced apoptosis inhibition in DLD1
Experimental: (§2) PUMAi was added to cells at 25 uM at the same time as CPT.
(§3) A minimum of 300 cells per treatment were analyzed in triplicate.

[2] = test system: Lewis lung carcinoma (LLC) tumors; experiment: LLC tumor-bearing mice treated with CPT-11 six times over 2 weeks; format: in vivo, mouse
Experimental: For tumor experiments, 4 million LLC cells [American Type Culture Collection (ATCC)] were injected into the flanks of WT and Puma KO mice and allowed to grow for 11 days. Mice were then treated with CPT-11 (200 mg/kg) three times per week for 2 weeks. PUMAi (10 mg/kg) or vehicle control was administered by intraperitoneal injection 2 hours before and 20 hours after each dose of CPT-11. Mice were sacrificed 4 hours after the final CPT-11 treatment.
For tumor experiments, mice were treated with CPT-11 three times per week for two weeks. Mice receiving PUMAi were treated 2 hours before each dose of CPT-11 and 20 hours after. Mice were sacrificed four hours after the final CPT-11 treatment (FIG. 13A). Tumor volumes were measured with calipers and calculated as volume=(length x width2)/2. Mice were 7-9 weeks old, and roughly equal numbers of male and female animals were used. To account for variations in starting body weights, the values in FIGS. 3 and 4 are expressed as a percentage of the respective mouse weights at the time of the first CPT-11 treatment.
(§1) Immediately after sacrifice, about 10-cm portion of the jejunum was removed and carefully rinsed with ice-cold saline. The tissue was opened longitudinally and tacked to a foam board for fixation overnight in 10% formalin. Tissues were then rolled up into “swiss rolls” and embedded in paraffin. For tumor analysis, flank tumors were removed, measured, and cut into pieces for either formalin fixation or flash freezing in a dry ice/ethanol bath. Tissue sections (5 um) were deparaffinized and rehydrated through graded ethanols. Histological analysis was performed by hematoxylin and eosin (H&E) staining.
Average villus height was determined by measuring 40 to 50 villi from different locations of the small intestine, from at least three different animals per group, and reported as means A} SEM. Measurements were made from the top of the crypt to the tip of the villus using 100 Å˜H&E images and SPOT 5.1 Advanced software (Diagnostic Instruments Inc.).
Neutrophil IF. Sections were prepared as described above. […] Sections were then incubated with AlexaFluor-594 goat antirat secondary antibodies (1:200; A11007; Invitrogen) for 1 hour at room temperature and counterstained with VectaShield plus DAPI.

intestinal crypts = experiment: CPT-11-induced intestinal crypt apoptosis in mice (TUNEL, active caspase-3)
Experimental: Puma+/+ (WT) and Puma−/− (Puma KO) mice (52) were generated in-house by heterozygote breeding. WT and Puma KO alleles were genotyped from genomic DNA isolated from tail snips, as described (52). p53−/− (p53 KO) mice were purchased from the Jackson Laboratory. […] All strains are in or have been backcrossed with the C57BL/6 background for more than 10 generations (F10). Mice were housed in microisolator cages in a room illuminated from 07:00 to 19:00 hours (12:12-hour light/dark cycle), with access to water and chow ad libitum.
Rehydrated sections were treated with 3% hydrogen peroxide (immunochemistry only), followed by antigen retrieval for 10 min in boiling 0.1 M citrate buffer (pH 6.0) with 1 mM EDTA. Apoptosis was analyzed by TUNEL staining with the ApopTag Peroxidase In Situ Apoptosis Detection kit (Chemicon International) according to the manufacturer's instructions.
Active caspase 3 IHC. Sections were deparaffinized and rehydrated through graded ethanols. Rehydrated sections were then treated with 3% hydrogen peroxide, followed by antigen retrieval for 10 minutes in boiling 0.1 M citrate buffer (pH 6.0) with 1 mM EDTA. Non-specific antibody binding was blocked using 20% goat serum (Invitrogen) at room temperature for 30 minutes.

mouse colonic organoids = experiment: Mouse colonic organoids treated with CPT; format: cell-based; details: PUMAi 50 uM
Experimental: Fresh mucosal scrapings from 10 cm of jejunum were washed in cold PBS, resuspended in 700 ul of RNA lysis buffer, and homogenized in a Dounce homogenizer. RNA was isolated using the Quick-RNA MiniPrep kit (Zymo Research) according to the manufacturer's instructions. Organoids were freed from Matrigel using Cell Recovery Solution (Corning), as described in, before RNA isolation. Complementary DNA was generated from 2 ug of total RNA from mice or ˜100 ng of total RNA from colonic organoids and was pooled from three mice or three wells of organoid culture per treatment group using SuperScript III reverse transcriptase (Invitrogen) and random primers. Gene expression was normalized to Gapdh. Representative results are shown, and similar results were obtained in at least three independent experiments. Details on mouse and human primers are found in Tables 1 and 2.
Mouse crypt isolation, organoid development, and passage were done as previously described with minor modifications. In brief, the complete culture medium for mouse intestinal organoids was slightly modified as follows: advanced Dulbecco's modified Eagle medium (DMEM)/F12 (12634-010, Invitrogen) was supplemented with 100 units/ml penicillin/0.1 mg/ml streptomycin (Invitrogen), 2 mM GlutaMAX (ThermoFisher), 20% (vol/vol) FBS (S11150, ATLANTA Biologicals), and WRN-conditioned medium (50%, vol/vol). Freshly isolated crypts were cultured with the same medium plus 10 μM Y-27632 (Y0503 Sigma) and 100 μg/ml Primocin (ant-pm-1, InvivoGen). For CPT and PUMAi treatment, intestinal organoids were passaged and re-plated in 25 μL of Matrigel (356231, Corning) in 24-well plates 24 hours before treatment with CPT (0.5 μM, C9911, Sigma-Aldrich) and PUMAi (50 μM) for 24 hours. The CPT-containing medium was replaced with complete medium containing PUMAi (50 μM). Three groups (treatment control, CPT only, and CPT plus PUMAi) were set up. Organoids 100 μm or greater in diameter were enumerated on day 6 after CPT treatment. Similar results were obtained from at least three independent experiments with triplicate wells in each experiment.

[3] = test system: colon cancer cell line HCT-116; experiment: PUMA-induced apoptosis inhibition in HCT-116
Experimental: as §2, §3

WT mice = experiment: Survival after total body irradiation; format: in vivo, mouse; details: 9.5 and 15 gray TBI; PUMAi 10 mg/kg 30 min before and after, then daily for 4 days
Experimental: (FIG. 12A) and (FIG. 12B) Survival of WT mice treated with 3 daily doses of 180 mg/kg/day (A) and 250 mg/kg/day (B) CPT-11, respectively, on days 0, 1, and 2. PUMAi (10 mg/kg) was given 2 hours before each dose of CPT-11 and 20 hours after the final dose. (FIG. 12C) and (FIG. 12D) Survival of WT mice after total body irradiation (TBI) at 9.5 Gy (FIG. 12C) and 15 Gy (FIG. 12D). PUMAi (10 mg/kg) was given 30 min before and 30 min after TBI, and then daily for 4 days. Survivors at 9.5 Gy TBI in C were sacrificed on day 40 with no obvious health problems. P values were calculated by log-rank test.

C57BL/6J mice = experiment: Survival and GI injury after three daily doses of CPT-11; format: in vivo, mouse
Description: as §1
; CPT-11). […] . […] BH3-only proteins BIM and NOXA were not induced by CPT-11 or affected by Puma KO (FIG. 8F). […] . […] . Histological analysis confirmed lethal GI injury in WT and p53 KO mice on day 5, showing severe loss of crypts and shortening of villi, which was abrogated in Puma KO mice (FIG. 1F).

OCCN1CCN(CC(O)COc2ccc3ccccc3c2)CC1 (stereo not drawn) [PUMAi, 1-[4-(2-hydroxyethyl)-1-piperazinyl]-3-(2-naphthyloxy)-2-propanol dihydrochloride]
Apoptosis inhibition of DLD1 [1]: 39% | CPT-11-induced weight loss, intestinal damage and lethality ([2]; PUMAi 10 mg/kg 2 h before and 20 h after each CPT-11 dose): highly resistant | tumor response to CPT-11 ([2]; PUMAi 10 mg/kg 2 h before and 20 h after each CPT-11 dose, vs vehicle group): comparable tumor response | % mice compieting treatment ([2]; WT mice, LLC tumor experiments): 100% (5/5) | grooming and physical activity ([2]; daily inspections throughout the study): improved grooming and physical activity | crypt apoptosis, PUMAi given after CPT-11 (intestinal crypts; PUMAi 10 mg/kg 1 hour after CPT-11 200 mg/kg, 6 h): still reduced apoptosis effectively | TUNEL and active caspase-3 staining in crypts (intestinal crypts; PUMAi 10 mg/kg 2 h before CPT-11 200 mg/kg, 6 and 24 h, WT mice): reduced TUNEL and active caspase-3 staining preferentially in the CBCs | crypt apoptosis in Puma KO mice (intestinal crypts; Puma KO mice, CPT-11 200 mg/kg, 6 h): did not further reduce crypt apoptosis | CPT-induced activation of WNT and NOTCH targets (Lgr5, CD44, Olfm4) (mouse colonic organoids; 24 h after CPT): suppressed CPT-induced activation of WNT and NOTCH targets | CPT-induced growth suppression and caspase-3 activation (mouse colonic organoids; CPT 500 nM 24 h): strongly blocked | Apoptosis inhibition of HCT-116 [3]: 17% | survival after total body irradiation (WT mice): increased the survival | survival at the LD90 of CPT-11 (C57BL/6J mice; CPT-11 215 mg/kg per day x3, PUMAi 10 mg/kg 2 h before each dose, WT mice): 70% | CPT-11-induced lethality (C57BL/6J mice; CPT-11 180, 215, 250 mg/kg/day x3, PUMAi 10 mg/kg): decreased CPT-11-induced lethality at three different doses | GI injury by histological analysis (C57BL/6J mice; day 5, CPT-11 215 mg/kg per day x3, compared to WT mice): reduced GI injury
